The source of these data is US12115152B2, “Pan-RAF kinase inhibitor and use thereof” (HEFEI INSTITUTES OF PHYSICAL SCIENCE, CHINESE ACADEMY OF …, priority 2019, dated 2024).

Assay [1] relates to human acute leukemia cell OCI-AML-3 (expressing NRAS-Q61L mutant kinase). Kind of assay: Effect on proliferation of cancer cells, Cell Titer-Glo, 72 hours. The conditions noted are these: OCI-AML-3 cells. In kind it is cell-based. The method, then: (§1) The compounds of the present invention were tested for their effect on growth of cancer cells (Table 2), to further evaluate the compounds herein for their inhibitory effect on proliferation of cancer cells and their selectivity in inhibiting proliferation of cancer cells.
(§2) The above-mentioned BaF3-FL-BRAF-V600E mutant cell line was constructed by the method as follows. The sequence of human full-length BRAF-V600E mutant kinase region was amplified by PCR, inserted into a MSCV-Puro vector (purchased from Clontech), and stably transfected into mouse BaF3 cells by the retroviral method, and the growth factor IL-3 was removed. Eventually, a cell line dependent on a full-length BRAF-V600E protein having various mutation transferred was obtained.
(§3) In the example, solutions of the test compound in DMSO at different concentrations (0.000508 μM, 0.00152 μM, 0.00457 μM, 0.0137 μM, 0.0411 μM, 0.123 μM, 0.370 μM, 1.11 μM, 3.33 μM, 10 μM) was added to the above cells respectively. The cells were incubated for 72 hours. The number of viable cells was detected with a Cell Titer-Glo (Promega, USA) Cell Viability Assay Kit by quantifying the ATP in viable cells. The values of GI50 (unit) of the compounds of the present invention against each of the test cells were determined.
For orientation: In ATP-based viability assays light output follows the ATP content of the culture.

Assay [2] has as its system human acute leukemia cell NB4 (expressing KRAS-A18D mutant kinase). The assay is described as above. In kind it is cell-based. The conditions noted are these: NB-4. The method, then: as §1, §2, §3
Assay [3] relates to Calu-6, A375, BxPC3, HCT116, COLO205 cell transplanted tumors. Kind of assay: Drug efficacy in mouse transplanted tumor models. The conditions noted are these: mouse transplanted tumor models of cancer cells expressing KRAS, BRAF or NRAS mutations, oral daily dosing. The assay is classed as in vivo.
Assay [4] deals with colorectal cancer cell COLO205 (expressing BRAF-V600E mutant kinase). Kind of assay: Effect on proliferation of cancer cells, Cell Titer-Glo, 72 hours. The following applies: Homo sapiens, COLO 205. In kind it is cell-based.
In assay [5] the test system is melanoma cell A375 (expressing BRAF-V600E mutant kinase). The description is as above. The assay is classed as cell-based. The conditions noted are these: Homo sapiens, A-375.
In assay [6] the test system is mouse BaF3-FL-BRAF-V600E (stably expressing full-length BRAF-V600E mutant kinase). The description is as above. In kind it is cell-based.

Regarding `Cc1ccc(NC(=O)c2cccc(C(F)(F)F)c2)cc1-n1cc(-c2cncc(N3CCOCC3)c2)cn1` [Example 16, N-(4-methyl-3-(4-(5-morpholinopyrid-3-yl)-1H-pyrazol-1-yl)phenyl)-3-(trifluoromethyl)benzamide], the GI50 is 21 nM in assay [1] and 27 nM in assay [2]. In addition, the tumor inhibitory effect entry in assay [3] was “inhibitory effect superior to the control compounds”.

With `Cc1ccc(NC(=O)c2cccc(C(F)(F)F)c2)cc1-n1cc(-c2cccnc2)cn1` [compound 1, 3-trifluoromethyl-N-(4-methyl-3-(4-(pyrid-3-yl)-1H-pyrazol-1-yl)phenyl)benzamide, reference compound], the GI50 stood at 20 nM in assay [1]; 83 nM in assay [2]; 150 nM in assay [4]; 85 nM in assay [5]; 17 nM in assay [6].

In general, GI50 refers to the concentration giving 50% growth inhibition. A low value points to greater sensitivity of the cells.
